The test system of data set [1] is QTc interval. Description: QTcF change following iloperidone or ziprasidone administration, by KCNQ1 and CYP2D6 genotype. Format: in vivo, human. The following applies: for QTcFmax Change: change from baseline. As to the method:
The DNA variants in KCNQ1 noted above were examined for correlation with iloperidone-induced QT prolongation.
Individuals from an earlier study of CYP2D6 genotypes and a predisposition to QT prolongation were genotyped at each of the KCNQ1 SNPs above. 22 individuals had been given a dose of 8 mg of iloperidone b.i.d., 30 had been given 12 mg b.i.d., and 22 had been given 24 mg q.d.
The results were similar when ziprasidone was administered at a dosage of 80 mg b.i.d. The QTc changes for each genotype are shown below in Tables 4 and 5.
Tables 10 and 11 below show CYP2D6 metabolizer status against QTcFmax change from baseline for individuals having GG and non-GG genotypes, respectively, at the KCNQ1 79764 position SNP.
In order to assess the CYP2D6 component to such prolongation, QTc change was separately compared to the CYP2D6G1846A and CYP2D6C100T polymorphisms.
Tables 14 and 15 below show QTc changes in individuals grouped according to their KCNQ1 79764, CYP2D6G1846A, and CYP2D6C100T genotypes. […] Similarly, individuals who were GG at KCNQ1 79764 and had one or two mutant alleles at the CYP2D6 loci (i.e., AG or AA at CYP2D6G1846A and CT or TT at CYP2D6C100T) experienced the greatest QT prolongation.

Data set [2] relates to QTc interval. The following applies: cited from earlier work; for QTc prolongation: comparison of several antipsychotics.
The target of a further data set is CYP2D6 (Homo sapiens, UniProt P10635). The following applies: cited from earlier work.
CYP2D6, sequence (P10635 whole entry): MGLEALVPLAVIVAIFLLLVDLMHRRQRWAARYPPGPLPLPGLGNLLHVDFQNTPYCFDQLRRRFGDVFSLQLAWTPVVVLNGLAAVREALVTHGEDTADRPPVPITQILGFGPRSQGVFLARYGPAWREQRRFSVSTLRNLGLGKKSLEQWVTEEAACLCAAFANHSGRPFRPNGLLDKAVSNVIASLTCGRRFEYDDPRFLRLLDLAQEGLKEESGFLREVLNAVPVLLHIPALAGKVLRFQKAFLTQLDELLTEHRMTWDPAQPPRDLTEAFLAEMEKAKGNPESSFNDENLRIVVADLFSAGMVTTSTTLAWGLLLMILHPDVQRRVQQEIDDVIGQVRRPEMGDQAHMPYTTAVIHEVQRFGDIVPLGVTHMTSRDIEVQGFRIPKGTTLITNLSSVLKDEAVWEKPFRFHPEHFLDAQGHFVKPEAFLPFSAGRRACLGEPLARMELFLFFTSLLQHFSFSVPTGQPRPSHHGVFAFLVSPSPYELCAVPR
For data set [3], the system named is QTc interval. The following applies: cited from earlier work.
In another data set the test system is QT interval. Put plainly: QT prolongation following iloperidone in 174 individuals genotyped at SNP_A-2279707 (rs179407). The following applies: oral 24 mg/day B.I.D. for two weeks; for High QT, + test (number of individuals) / Low QT, + test (number of individuals): rs179407 genotype TT; for High QT, − test (number of individuals) / Low QT, − test (number of individuals): rs179407 genotype not TT; for Odds Ratio: rs179407 TT versus not TT. It is filed as in vivo, human.

Values joined by “and” are separate entries in the source; they are usually repeats but may differ in a detail not shown here. Identical values can stand only once.

On to `O=C1Cc2cc(CCN3CCN(c4nsc5ccccc45)CC3)c(Cl)cc2N1` [Ziprasidone, ziprasidone], for which the QTcF change in the data set on QTc interval [1] (ziprasidone 80 mg b.i.d., KCNQ1 79764 SNP genotype CC) is 8.30 ms; in the data set with QTc interval [1] (ziprasidone 80 mg b.i.d., KCNQ1 79764 SNP genotype CG), 6.19 ms; in the data set with QTc interval [1] (ziprasidone 80 mg b.i.d., KCNQ1 79764 SNP genotype GG), 15.32 ms; in the data set with QTc interval [1] (ziprasidone 80 mg b.i.d., KCNQ1 79764 SNP genotype Non-GG), 6.75 ms. Further, the QTc prolongation result with QTc interval [2] is on record as “highest degree of QTc prolongation, followed by ziprasidone”.
As to `Cc1cc2c(s1)Nc1ccccc1N=C2N1CCN(C)CC1` [olanzapine], the QTc prolongation entry in the data set on QTc interval [2] is recorded as “associated with a prolongation of the QTc interval”.
In the case of `COc1cc(C(C)=O)ccc1OCCCN1CCC(c2noc3cc(F)ccc23)CC1` [Iloperidone], on CYP2D6, the metabolizing enzyme entry is on record as “metabolized by CYP2D6”. The “effect on the QTcF duration with metabolic inhibition” value with QTc interval [3] (adding an inhibitor of CYP2D6) is on record as “increases the effect of iloperidone on the QTcF duration”. The “effect on QTc duration” value with QTc interval [3] (in vivo) is reported as “some effects on QTc duration”. The “QTcFmax Change” value in the data set with QTc interval [1] (KCNQ1 79764 genotype GG, CYP2D6 metabolizer status Extensive) amounted to 16.4 ms; in the data set on QTc interval [1] (KCNQ1 79764 genotype GG, CYP2D6 metabolizer status Intermediate), 18.1 ms; with QTc interval [1] (KCNQ1 79764 genotype GG, CYP2D6 metabolizer status Poor), 33.6 ms; with QTc interval [1] (KCNQ1 79764 genotype Non-GG, CYP2D6 metabolizer status Extensive), 8.3 ms; with QTc interval [1] (KCNQ1 79764 genotype Non-GG, CYP2D6 metabolizer status Intermediate), 3.1 ms; with QTc interval [1] (KCNQ1 79764 genotype Non-GG, CYP2D6 metabolizer status Poor), 24.6 ms. Further, the QTcF change in the data set with QTc interval [1] (iloperidone 8 mg b.i.d., 12 mg b.i.d. or 24 mg q.d., KCNQ1 79764 SNP genotype CC) worked out at 10.38 ms; in the data set with QTc interval [1] (iloperidone 8 mg b.i.d., 12 mg b.i.d. or 24 mg q.d., KCNQ1 79764 SNP genotype CG), 6.80 ms; in the data set with QTc interval [1] (iloperidone 8 mg b.i.d., 12 mg b.i.d. or 24 mg q.d., KCNQ1 79764 SNP genotype GG) it was 17.58 ms; in the data set on QTc interval [1] (iloperidone 8 mg b.i.d., 12 mg b.i.d. or 24 mg q.d., KCNQ1 79764 SNP genotype Non-GG), 7.83 ms; in the data set with QTc interval [1] (iloperidone, CYP2D6C100T genotype CC), 10.8 ms; in the data set with QTc interval [1] (iloperidone, CYP2D6C100T genotype CT) it was 16.9 ms. Moreover, the QTcF change worked out at 19.2 ms in the data set with QTc interval [1] (iloperidone, CYP2D6C100T genotype Non-CC); 31.3 ms in the data set with QTc interval [1] (iloperidone, CYP2D6C100T genotype TT); 41.6 ms in the data set with QTc interval [1] (iloperidone, CYP2D6G1846A genotype AA); 15.9 ms in the data set with QTc interval [1] (iloperidone, CYP2D6G1846A genotype AG); 11.1 ms in the data set with QTc interval [1] (iloperidone, CYP2D6G1846A genotype GG); 18.5 ms in the data set on QTc interval [1] (iloperidone, CYP2D6G1846A genotype Non-GG). In addition, the QTcF change in the data set on QTc interval [1] (iloperidone, KCNQ1 78927 position SNP genotype AA) was 7.21 ms; in the data set on QTc interval [1] (iloperidone, KCNQ1 78927 position SNP genotype AC), 9.19 ms; in the data set on QTc interval [1] (iloperidone, KCNQ1 78927 position SNP genotype CC), 14.08 ms; with QTc interval [1] (iloperidone, KCNQ1 78927 position SNP genotype Non-CC) it was 6.46 ms; with QTc interval [1] (iloperidone, KCNQ1 79764 GG and CYP2D6C100T CC) it was 19.2 (n = 15) msec; in the data set on QTc interval [1] (iloperidone, KCNQ1 79764 GG and CYP2D6C100T non-CC), 23.5 (n = 10) msec. For the same molecule, the QTcF change with QTc interval [1] (iloperidone, KCNQ1 79764 GG and CYP2D6G1846A GG) is listed as 19.5 (n = 15) msec; in the data set with QTc interval [1] (iloperidone, KCNQ1 79764 GG and CYP2D6G1846A non-GG), 25.5 (n = 10) msec; in the data set with QTc interval [1] (iloperidone, KCNQ1 79764 non-GG and CYP2D6C100T CC) it was 7.4 (n = 35) msec; in the data set with QTc interval [1] (iloperidone, KCNQ1 79764 non-GG and CYP2D6C100T non-CC) it was 12.6 (n = 7) msec; in the data set with QTc interval [1] (iloperidone, KCNQ1 79764 non-GG and CYP2D6G1846A GG), 7.6 (n = 34) msec; in the data set on QTc interval [1] (iloperidone, KCNQ1 79764 non-GG and CYP2D6G1846A non-GG), 9.6 (n = 6) msec. The QTcF change with QTc interval [1] (iloperidone, KCNQ1 286414 position SNP genotype AA) is 12.50 ms and 12.51 ms; in the data set with QTc interval [1] (iloperidone, KCNQ1 286414 position SNP genotype AG) it was 3.15 ms; with QTc interval [1] (iloperidone, KCNQ1 286414 position SNP genotype GG) it was 10.34 ms; in the data set with QTc interval [1] (iloperidone, KCNQ1 286414 position SNP genotype Non-AA), 5.16 ms. In the data set with QTc interval [1] (iloperidone, KCNQ1 79764 SNP), the “average QTc change, GG genotype relative to non-GG genotype” value is on record as “more than twice the change in individuals with a non-GG genotype”. Further, the results for the “High QT, + test (number of individuals)” value in the data set with QT interval (threshold QT > 5 msec), in the data set on QT interval (threshold QT > 15 msec) and in the data set with QT interval (threshold QT > 30 msec) were 102, 64 and 26, respectively. Also, the “Low QT, + test (number of individuals)” value stood at 47 in the data set with QT interval (threshold QT > 5 msec), 85 in the data set with QT interval (threshold QT > 15 msec) and 123 with QT interval (threshold QT > 30 msec). Besides, the “High QT, − test (number of individuals)” value with QT interval (threshold QT > 5 msec) stood at 15; with QT interval (threshold QT > 15 msec), 9; in the data set on QT interval (threshold QT > 30 msec) it was 2. Besides, the “Low QT, − test (number of individuals)” value in the data set on QT interval (threshold QT > 5 msec) worked out at 19; in the data set with QT interval (threshold QT > 15 msec), 25; with QT interval (threshold QT > 30 msec), 32. Moreover, the “Odds Ratio” value stood at 2.749 with QT interval (threshold QT > 5 msec), 2.092 in the data set on QT interval (threshold QT > 15 msec) and 3.382 in the data set on QT interval (threshold QT > 30 msec).
Turning to `OCCOCCN1CCN(C2=Nc3ccccc3Sc3ccccc32)CC1` [Quetiapine], in the data set with QTc interval [2], the QTc prolongation entry is recorded as “associated with a prolongation of the QTc interval”.
In the case of `Cc1nc2n(c(=O)c1CCN1CCC(c3noc4cc(F)ccc34)CC1)CCCC2` [risperidone], in the data set on QTc interval [2], the QTc prolongation result was “associated with a prolongation of the QTc interval”.
Turning to `O=C(CCCN1CCC(O)(c2ccc(Cl)cc2)CC1)c1ccc(F)cc1` [haloperidol], the “increase in QTc with metabolic inhibition” value in the data set on QTc interval [2] (with metabolic inhibitors of the CYP450 isoenzyme responsible for the metabolism of each drug) is listed as “doubling of QTc”.

These data come from patent US9157121B2, “Method of treatment based on polymorphisms of the KCNQ1 gene” (Vanda Pharmaceuticals, Inc., priority 2009, dated 2015).
